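Tested at 5 concentrations; 48 h exposure; 96-well plates; endpoints linearly interpolated, else capped at highest concentration. GI50: concentration for 50% inhibition of growth. TGI: concentration producing complete growth inhibition.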
Tests used:
Experiment in all cases: NCI tumour cell line growth inhibition, 48 h
[1] = test system: RXF 393 renal
[2] = test system: A498 renal
[3] = test system: SW-620 colon
[4] = test system: NCI-H460 lung
[5] = test system: MOLT-4 leukemia
[6] = test system: SF-268 CNS
[7] = test system: NCI-H23 lung
[8] = test system: LOX IMVI melanoma
[9] = test system: K-562 leukemia
[10] = test system: UO-31 renal

SMILES | GI50 [1] | TGI [1] | GI50 [2] | TGI [2] | GI50 [3] | TGI [3] | GI50 [4] | TGI [4] | GI50 [5] | TGI [5] | GI50 [6] | TGI [6] | GI50 [7] | TGI [7] | GI50 [8] | TGI [8] | GI50 [9] | TGI [9] | GI50 [10] | TGI [10]
COc1cnc2c(c1)C(=O)c1c-2n(CCCNC(C)C)c(=O)c2cc(F)ccc12 | 230 nM | 702 nM | 199 nM | 811 nM | 122 nM | 1330 nM | 42 nM | 175 nM | 36.2 nM | 267 nM | 207 nM | 1680 nM | 176 nM | 676 nM | 114 nM | 249 nM | 129 nM | 1720 nM | 80.1 nM | 340 nM
CC1=C([Te]c2ccc(O)cc2)C(=O)c2ccccc2C1=O | 2420 nM | 9460 nM | 1360 nM | 3010 nM | 1470 nM | 3150 nM | 347 nM | 1620 nM | 907 nM | 4300 nM | 2630 nM | 9030 nM | 1840 nM | 5840 nM | 1690 nM | 4350 nM | 1930 nM | 4360 nM | 1560 nM | 4980 nM
CCOC(=O)C(C)(C)C(O)C(C)C (stereo not given) |  | > 100000 nM |  | > 100000 nM |  | > 100000 nM |  | > 100000 nM |  | > 100000 nM |  | > 100000 nM |  | > 100000 nM |  | > 100000 nM |  | > 100000 nM |  | > 100000 nM
